Source: paper PMC2674291 (The Open Biochemistry Journal, 2009)

Assays:
[1] = tested on: Phenoloxidase of the resistant strain (POr); conditions: 20 mM PBS pH 6.5; room temperature; partially purified enzyme
[2] = tested on: Phenoloxidase of the susceptible strain (POs); assay: absorbance at […] nm, initial rate, microtiter plate; format: biochemical, Plutella xylostella; conditions: 20 mM PBS pH 6.5; room temperature; partially purified enzyme

Compound: N[C@@H](Cc1ccc(O)c(O)c1)C(=O)O [L-DOPA]
- Km [1]: 1110 µM
- Km [2]: 1110 µM
